Ends that are not written are not given here.
Key:
[1] = test system: SARS-CoV-2
[2] = test system: SARS-CoV-2 pseudovirus; format: cell-based
[3] = target: T1, S1 protein (Severe acute respiratory syndrome coronavirus 2, UniProt P0DTC2); assay: biochemical; format: binding, SARS-CoV-2
T1 construct: Purified S1 protein was first immobilized on a series S sensor chip protein A; purchased OkayBio

| Sequence | neutralizing ability by authentic virus neutralization assays [1] | neutralizing activity against SARS-CoV-2 by IFA assay [1] | neutralizing ability by pseudovirus neutralizing assay [2] | Kd [3] [µM] | IC50 ([1]; 24 h) [µg/mL] |
| --- | --- | --- | --- | --- | --- |
| AKDFRQYCSSTTCYDLDY [CDR3 peptide 21] | showed neutralizing ability | obvious neutralizing activity | showed neutralizing ability | – | – |
| ARDIVVPAAMGEIGGWFDP [CDR3 peptide 16] | – | – | – | 24.1 | – |
| ARDVSSLYGGNSDDY [CDR3 peptide 24] | – | no neutralizing activity | – | – | – |
| ARERADDYSNYCWFDP [CDR3 peptide 12] | showed neutralizing ability | obvious neutralizing activity | showed neutralizing ability | – | – |
| ARESLYDFDGSGYVDALDV [CDR3 peptide 11] | – | – | – | 0.262 | – |
| EAWDVDNRVFGGGTR [CDR3 peptide 51] | – | obvious neutralizing activity | – | – | 1250 to 2500 |
| TTDRYQLLWAG [CDR3 peptide 22] | showed neutralizing ability | obvious neutralizing activity | showed neutralizing ability | – | – |
| VRERISYFDHWGQG [CDR3 peptide 53] | – | obvious neutralizing activity | – | – | – |
| VRYSPEPAVLITEGYFD [CDR3 peptide 4] | showed neutralizing ability | modestly lower neutralizing activity | showed neutralizing ability | – | – |
| YYCQQYDNLSGT [CDR3 peptide 44] | showed neutralizing ability | modestly lower neutralizing activity | showed neutralizing ability | – | – |
| YYCQSYDSSNVV [CDR3 peptide 47] | showed neutralizing ability | modestly lower neutralizing activity | showed neutralizing ability | – | – |
